Test results reported in patent US10392363B2, “Methods for treating protozoan infections” (Neoculi Pty Ltd., priority 2014, dated 2019).

Tests used:
[1] = test system: Trypanosoma cruzi (Tulahuen trypomastigotes expressing β-galactosidase, in L6 cells); assay: In vitro T. cruzi assay for determination of IC50; assay type: cell-based; conditions: 96 h incubation
Procedure: The T. cruzi assay uses Tulahuen trypomastigotes expressing the β-galactosidase gene. The parasites were maintained in vitro by serial passage in L6 cells. […] Extracellular trypomastigotes were then removed and NCL compounds were added in seven-point serial dilutions performed in triplicate. Benznidazole (Epichem Pty Ltd.) was included as a control. […] After 4-6 h, a colour change following catabolisation of the reagent by viable T. cruzi was observed and absorbance was read at 530 nm using a Dynex microplate reader. […] For each compound, % inhibition values were used to generate a standard curve from which the IC50 was calculated. Each assay was performed at least twice, and the average was used.

[2] = test system: Leishmania donovani promastigotes; assay: L. donovani screening (Alamarblue); assay type: cell-based; conditions: for inhibition at 10 µM: 96 hrs, read-out: reduction of metabolic activity / inhibition of L. donovani; for L. donovani SI: GI50 of macrophages divided by IC50 of parasites
Procedure: L. donovani Screening. Procyclic promastigotes from exponentially growing cultures maintained in DME-L+ Bob additions were used for all assays. Compounds were initially screened for activity at 10 μM. Compounds were diluted in culture media to a […] in 96 well plates. Promastigotes were diluted to a density of ˜8×10^5 cells/ml then added to the assay plate resulting in a final cell density of 4×10^5 cells/ml. in 96 well plates. Cells were incubated for 96 hrs at 27° C. before the addition of Alamarblue (thermofisher). Fluorescence was read at excitation 530 nm and Emission 590 nm. […] Compounds were serially diluted in thirds, in a 96 well plate, in cell growth media so that concentrations ranged from 0.005 to 10 μM and promastigotes added to a final concentration of 1×10^6 cells/ml. Cells were incubated at 27° C. for 72 hours before the addition of alamar blue. Fluorescence was measured as above.

[3] = test system: Giardia duodenalis trophozoites; assay: Resazurin reduction assay (Example 3); assay type: cell-based; conditions: 42 hours, then 6 hours with Alamarblue
Procedure: Giardia trophozoites were grown until confluent. The media was replaced with fresh media and they were cold shocked for 40 minutes (as above). Cells were diluted to a concentration of ˜500 000 cells/ml and 100 μl were added to each well of the assay plate (except media only control). The assay was incubated in an anaerobic environment (candle jar) for 42 hours at 37° C. […] After incubation the absorbance of each sample was read at 570 and 630 nm. The percent reduction of resazurin (Alamarblue™) was calculated and data was analysed with GraphPad Prism v6 software. Assay set-up: the assay was performed in 96 well plates in a total volume of 200 μl. 100 μl of NCL812 or NCL062 (concentration of 25.6 mg/ml in DMSO) or metronidazole (concentration 5 mg/ml in DMSO) stock was added to 9.9 ml of TYI-S-33 medium, then serially diluted 1:2 in the same medium. Cells were added as above.

[4] = Cell toxicity assay (WST-1); assay type: cell-based, mouse; conditions: mouse, RAW 264.7 macrophages, RAW 264.7, 24 hours, read-out: GI50 macrophage
Procedure: Cell toxicity assays. Mouse macrophages (RAW 264.7) were grown in RPM11640 media supplemented with L-glutamine and 10% foetal calf serum. Cells were trypsanised when 80% confluent and subcultured every 3-4 days. For cytotoxicity assays cells were diluted to a final cell concentration of 2×10^4 cells/ml and 198 μl added to each well of a 96 well plate. Cells were incubated in a humidified incubator for 2 hours at 37° C. 5% CO2 before the addition of NCL compounds (2 μl/well, previously diluted in DMSO). Campothecin, triton X and DMSO only were used as controls. Cells were exposed to the compounds for 24 hours. The metabolic activity of the cells was determined using the WST-1 assay system (Roche Life Science). The supernatant was removed, 100 μl of PBS with 10% WST-1 was added to each well and incubated for 1 hr before reading absorbance at 450 nm. The selectivity index of the compounds was determined by dividing the IC50 of macrophages by the IC50 against parasites. IC50 was determined via graphpad prism software.

[5] = test system: T. brucei procyclic stage; assay: T. brucei screening (alamar blue); assay type: cell-based, Trypanosoma brucei
Procedure: T. brucei screening. Procyclic promastigotes from exponentially growing cells maintained SDM-79 medium were used in all assays. Compounds were initially screened at 10 μM for activity. Compounds were diluted in culture media to a concentration of 20 μM and added to a 96 well plate, after addition of promastigotes (final concentration 4×10^5 cells/ml) compound concentration was 10 μM. Cells were incubated for 48 hrs at 27° C. before the addition of alamar blue and fluorescence measurement as described above. […] Compounds were serially diluted in thirds in culture media resulting in final concentrations ranging from 0.004-10 μM. Promastigotes were added at a final concentration of 4×10^5 cells/ml. Cells were incubated at 27° C. for 48 hours before addition of alamar blue. In addition promastigotes, at a concentration of 8×10^5 were exposed to NCL026 for 1.5 hours before removal of the drug via centrifugation at 5000 rpm for 7 minutes and resuspension of cells in culture media. Cells were incubated for 96 hours at 27° C. and observed daily for metabolic activity (alamar blue assay) and morphological changes. A control culture was exposed to DMSO instead of NCL026.

[6] = Trypanosoma cruzi, TULAHUEN, L6

Structure (SMILES)	IC50 [1, 6]	also measured
O=C(N/N=C/c1cccc(C(F)(F)F)c1)N/N=C/c1cccc(C(F)(F)F)c1 [NCL011]	> 11 µM	–
N=C(NN=Cc1ccccc1Cl)NN=Cc1ccccc1Cl [NCL020]	–	IC50 [1]: 24 µM
N=C(N/N=C/c1ccc(F)cc1)N/N=C/c1ccc(F)cc1 [NCL021]	16 µM	–
N=C(N/N=C/c1cccc(F)c1)N/N=C/c1cccc(F)c1 [NCL023]	19 µM	–
N#Cc1ccccc1C=NNC(=N)NN=Cc1ccccc1C#N [NCL025]	–	IC50 [1]: 20 µM
COc1ccc(C=NNC(=N)NN=Cc2ccc(OC)cc2)cc1 [NCL027]	–	IC50 [1]: 14 µM
COc1cccc(/C=N/NC(=N)N/N=C/c2cccc(OC)c2)c1 [NCL029]	19 µM	–
N=C(N)N/N=C/c1ccc(Cl)cc1 [NCL030]	18 µM	–
N#Cc1ccccc1C=NNC(=N)N [NCL032]	–	IC50 [1]: 58 µM
N=C(N/N=C/c1ccc(C(F)(F)F)cc1)N/N=C/c1ccc(C(F)(F)F)cc1 [NCL035]	20 µM	–
N=C(NN=Cc1ccccc1C(F)(F)F)NN=Cc1ccccc1C(F)(F)F [NCL036]	–	IC50 [1]: 8.3 µM
N=C(NN=Cc1cccc(C(F)(F)F)c1)NN=Cc1cccc(C(F)(F)F)c1 [NCL037]	–	IC50 [1]: 16 µM
Cc1ccc(/C=N/NC(=N)N/N=C/c2ccc(C)cc2)cc1 [NCL038]	16 µM	–
Cc1ccccc1/C=N/NC(=N)N/N=C/c1ccccc1C [NCL039]	9.9 µM	–
Cc1cccc(/C=N/NC(=N)N/N=C/c2cccc(C)c2)c1 [NCL040]	16 µM	–
N=C(N)N/N=C/c1ccc(C(F)(F)F)cc1 [NCL041]	14 µM	inhibition at 10 µM ([2]; Leishmania donovani): 100%
N=C(N)N/N=C/c1cccc(C(F)(F)F)c1 [NCL043]	16 µM	–
Cc1ccc(/C=N/NC(=N)N)cc1 [NCL044]	39 µM	–
N=C(N)N/N=C/c1cccc(Cl)c1 [NCL052]	15 µM	–
N=C(N/N=C/c1cccc(Cl)c1)N/N=C/c1cccc(Cl)c1 [NCL054]	19 µM	–

Structure (SMILES)	IC50 [1, 6]	also measured
C/C(=N\NC(=N)N/N=C(\C)c1ccc(Cl)cc1)c1ccc(Cl)cc1.Cl [NCL062]	–	metabolic activity of the trophozoites (percentage of reduction of resazurin) [3]: reduction in the metabolic activity; GI50 at 24 h [4]: 7.15 ± 1.27 µM; reduction of metabolic activity / inhibitory effect on T. brucei ([5]; 10 μM, 48 hrs): greatest inhibitory effect; T. brucei SI ([5]; GI50 of macrophages divided by IC50 of parasites): 1.75; IC50 ([5]; Trypanosoma brucei, 48 h): 4.04 ± 0.83 µM; inhibition at 10 µM ([2]; Leishmania donovani): 100%
N=C(NN)N/N=C/c1ccc(Cl)cc1 [NCL072]	46 µM	–
C/C(=N\NC(=N)NN)c1ccc(C(F)(F)F)cc1 [NCL073]	24 µM	–
N=C(N/N=C/c1ccc(Cl)cc1)N/N=C/c1ccc(Cl)cc1Cl [NCL074]	33 µM	–
CC(=NNC(=N)NN=Cc1ccc(C(F)(F)F)cc1)c1ccc(C(F)(F)F)cc1 [NCL075]	–	IC50 [1]: 15 µM
Cc1ccc(C=NNC(=N)NN=Cc2ccc(Cl)cc2)cc1 [NCL076]	–	IC50 [1]: 19 µM
N=C(N/N=C/c1ccc(Cl)cc1)N/N=C/c1ccc(C(F)(F)F)cc1F [NCL078]	> 10 µM	–
N=C(N/N=C/c1ccc(F)cc1)N/N=C/c1ccc(Cl)cc1 [NCL079]	> 10 µM	–
C/C(=N\NC(=N)N/N=C/c1ccc(Cl)cc1)c1ccc(C(F)(F)F)cc1 [NCL080]	7.8 µM	–
C/C(=N\NC(=N)N/N=C/c1ccc(Cl)cc1)c1ccc(Cl)cc1 [NCL081]	20 µM	–
N=C(N/N=C/c1ccc(Cl)cc1)N/N=C/c1ccccc1Cl [NCL082]	22 µM	–
N=C(NN=Cc1ccc(Cl)cc1)NN=Cc1cccc(Cl)c1 [NCL083]	–	IC50 [1]: 16 µM
N=C(N/N=C/c1ccc(Cl)cc1)N/N=C/c1ccc(Cl)cc1F [NCL084]	22 µM	–
N#Cc1ccccc1C=NNC(=N)NN=Cc1ccc(Cl)cc1 [NCL085]	–	IC50 [1]: 20 µM
N#Cc1cccc(/C=N/NC(=N)N/N=C/c2ccc(Cl)cc2)c1 [NCL086]	14 µM	–
N#Cc1ccc(C=NNC(=N)NN=Cc2ccc(Cl)cc2)cc1 [NCL087]	–	IC50 [1]: 17 µM
N=C(N/N=C/c1ccc(Cl)cc1)N/N=C/c1ccccc1F [NCL088]	19 µM	–
C/C(=N\NC(=N)N/N=C(\C)c1ccc(C(C)(F)F)cc1)c1ccc(Cl)cc1 [NCL089]	3 µM	–
CN(C)c1ccc(/C=N/NC(=N)N/N=C/c2ccc(N(C)C)cc2)cc1.Cl [NCL113]	–	GI50 at 24 h [4]: 12.9 ± 3.49 µM; L. donovani SI [2]: highly selective; L. donovani SI ([2]; listed as NCL 113): 14; IC50 ([2]; Leishmania donovani, 72 h): 0.92 ± 0.06 µM
